From publication PMC9002265, “A New Series of Strigolactone Analogs Derived From Cinnamic Acids as Germination Inducers for Root Parasitic Plants” (Frontiers in Plant Science, 2022)

Key:
ShHTL6 = biological target: T1, ShHTL6 (Striga hermonthica, UniProt A0A0M4AUV4); experiment: YLG assay (inhibition of YLG hydrolysis) with recombinant ShHTL6; type: biochemical
T1 sequence (A0A0M4AUV4 1-271): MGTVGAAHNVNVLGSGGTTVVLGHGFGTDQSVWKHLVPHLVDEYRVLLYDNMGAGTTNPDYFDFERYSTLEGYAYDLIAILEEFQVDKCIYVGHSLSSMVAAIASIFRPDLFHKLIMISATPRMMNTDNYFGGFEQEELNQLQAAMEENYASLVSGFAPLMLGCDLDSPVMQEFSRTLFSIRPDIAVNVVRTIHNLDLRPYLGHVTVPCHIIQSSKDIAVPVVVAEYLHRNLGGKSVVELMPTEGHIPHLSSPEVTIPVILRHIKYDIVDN
Description: The ORF fragment of ShHTL6 and ShHTL7 was synthesized using IDT gBlock service. The PCR amplified ShHTL6 and ShHTL7 fragment was digested with Nco I and EcoR I, and the digested product was introduced into a modified pET28 vector with an N-terminal His8 tag. Escherichia coli BL21(DE3) was used for protein expression. The overnight culture (12 ml) was added to a fresh LB medium (1.2 L) containing kanamycin (50 mg/L) at 37°C. After OD600 reached 0.8, 0.1 mM IPTG was added and the cell was further incubated at 16°C for 21 h. The culture medium was centrifuged at 3700 g and the pellet was stored at −20°C until use. The pellet was resuspended and sonicated in a lysis buffer (50 mM Tris buffer (pH 8.0) containing 500 mM NaCl, 10 mM 2-mercaptoethanol, and 10% glycerol). The supernatant was purified by Ni Sepharose TM 6 Fast Flow (500 μl, Cytiva). After washing with the washing buffer (50 mM Tris buffer (pH 8.0) containing 500 mM NaCl and 20 mM imidazole), The bound protein was eluted with elution buffer (50 mM Tris buffer (pH 8.0) containing 500 mM NaCl and 200 mM imidazole). The eluate was concentrated using VIVASPIN Turbo 15 (Sartorius), and the concentration was adjusted to 5 mg/ml. The purified protein was aliquoted to the appropriate volume, immediately frozen in liquid nitrogen, and stored at −80°C until use.
After YLG was incubated with recombinant ShHTL6 or ShHTL7 for 1 h, the fluorescence was measured by spectraMax i5 (Molecular Devices) at excitation by 480 nm and detection by 520 nm. IC50 values were calculated using the online tool Quest GraphTM IC50 Calculator (AAT Bioquest, Inc., United States; https://www.aatbio.com/tools/ ic50-calculator).

[1] = tested on: Arabidopsis wild type Col-0; experiment: Growth promoting assay and root phenotypic analysis; type: in vivo; conditions: 1 μM on agar plate
Description: Sterilized seeds of the Arabidopsis wild type Col-0 were put on the plate containing 1% (w/v) agar-solidified 0.5× Murashige and Skoog (MS) medium, 1% sucrose. Test compounds were dissolved in the medium at 1 μM by 10,000 times dilution from each acetone stock (final concentration of acetone was 0.01% (v/v)). To evaluate the growth promoting effect, these seedlings were cultured horizontally at 22°C for 20 days under LED light (105 μmol/m^2/s) with a 16 h light/8 h dark photoperiod. After the cultivation, flesh weight of shoot was measured. For root phenotypic analysis, these seedlings were cultured verticaly at 22°C for 11 days under LED light (105 μmol/m^2/s) with a 16 h light/8 h dark photoperiod. After the cultivation, root length was measured by using ImageJ software and number of lateral roots was counted by using a microscope.

AtD14 = biological target: T2, AtD14 (Arabidopsis thaliana, UniProt Q9SQR3); experiment: Hydrolysis assay with recombinant AtD14; type: biochemical; conditions: 10 μM substrate, 30°C, 60 min
T2 construct: The cDNA of AtD14 was introduced into pMALHis vector; MBP; His6; made in house; host or cells: E. coli BL21 (DE3)
T2 sequence (Q9SQR3 1-267): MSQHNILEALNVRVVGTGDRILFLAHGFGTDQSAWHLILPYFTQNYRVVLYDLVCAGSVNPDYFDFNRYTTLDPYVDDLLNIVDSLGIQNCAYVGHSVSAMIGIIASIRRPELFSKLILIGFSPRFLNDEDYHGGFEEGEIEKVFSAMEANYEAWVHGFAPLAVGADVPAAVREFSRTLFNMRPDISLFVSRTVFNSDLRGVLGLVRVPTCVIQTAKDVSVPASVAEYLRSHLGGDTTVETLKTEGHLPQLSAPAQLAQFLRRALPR
Description: The cDNA of AtD14 was introduced into pMALHis vector that has both MBP-tag and His6-tag. The vector was transformed in to E. coli BL21 (DE3) and the cell was precultured in LB medium containing 50 μg/ml ampicillin. Overnight cultures (10 ml) were added to fresh LB medium (1 L) containing 50 μg/ml ampicillin and it was cultured at 37°C. After OD600 reached to 0.8, the cultures were cooled at 16°C for 1 h, and then 0.1 mM IPTG was added. The culture was further incubated at 16°C for 20 h. The culture medium was centrifuged at 3,700 g and the pellet was stored at −20°C until use. The pellet was resuspended and sonicated in lysis buffer (50 mM Tris buffer (pH 8.0) containing 500 mM NaCl, 10 mM 2-mercaptoethanol, and 10% glycerol). The supernatant was purified by Ni Sepharose TM 6 Fast Flow (500 μl, Cytiva) After washing with the washing buffer (50 mM Tris buffer (pH 8.0) containing 500 mM NaCl and 20 mM imidazole), The bound protein was eluted with elution buffer (50 mM Tris buffer (pH 8.0) containing 500 mM NaCl and 200 mM imidazole). The eluate was concentrated using VIVASPIN Turbo 15 (Sartorius), and the concentration was adjusted to 5 mg/ml. The purified protein was aliquoted to the appropriate volume, immediately frozen in liquid nitrogen, and stored at −80°C until use.
Hydrolysis assays were carried out at 30°C for 60 min in 100 μl of a reaction buffer containing 0.13 pmol recombinant ShHTL7 or AtD14, 10 μM of substrate in 50 mM Phosphate-Na buffer (pH 7.0) containing 2% acetone. The enzyme reaction was stopped by addition of 100 μl of acetonitrile containing 1-naphtaleneacetic acid (NAA; 0.5 ng/μl) as an internal standard. After centrifuged at 13,000 rpm for 5 min, each sample was subjected to LC–MS/MS analysis equipped with reverse-phase column (CORTECS UPLC Phenyl 1.6 μm, ϕ2.1 × 75 mm; Waters). The concentration of remaining substrate and reaction product was calculated by using NAA as an internal standard. Detailed information about the analytical condition is described in Supplementary Table 1.

SMILES: CC1=CC(OC(=O)/C=C\c2ccccc2)OC1=O (centres unmarked) [c-CASL1]
- IC50 (ShHTL6): 900 nM
- lateral root density ([1]; 11 days): increased
- primary root length ([1]; 11 days): inhibited
- shoot fresh weight ([1]; 20 days): increase
- hydrolysis by AtD14 (AtD14): can hydrolyze
